Columns and labels:
[1] = Metabolic stability test in liver S9; type: in vitro ADME; details: pH 7.4, human liver S9 2 mg protein/mL, LC/MS; for remaining at 10 min: unchanged form after 10 minutes at 37°C, read-out: Remaining rate in human liver S9 (%/10min); for remaining at 1 h: unchanged form after 60 minutes at 37°C, read-out: Remaining rate in human liver S9 (%/60min)
Summary of the method: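 Compound from DMSO solution was incubated at 37°C with human liver S9 (final 2 mg protein/mL) in 100 mM potassium phosphate pH 7.4 with an NADPH-regenerating system for 0, 10 and 60 minutes. Reactions were stopped with acetonitrile/0.1% formic acid. Unchanged compound was measured by LC/MS as remaining rate (%) relative to zero time.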

[2] = Metabolic stability test in plasma; type: in vitro ADME, human; details: LC/MS; for remaining at 10 min: unchanged form after 10 minutes at 37°C in human plasma, read-out: Remaining rate in human plasma (%/10min); for remaining at 1 h: unchanged form after 60 minutes at 37°C in human plasma, read-out: Remaining rate in human plasma (%/60min)
Summary of the method: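 Compound in DMSO spiked into human, mouse or hamster plasma, incubated at 37°C for 0, 10 and 60 minutes, then quenched with acetonitrile/formic acid (final 0.1%). Unchanged compound in supernatant quantified by LC/MS; remaining rate (%) relative to time zero.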

[3] = Stability test in buffer (pH 7.4); type: physicochemical; details: phosphate buffer/acetonitrile 7:3, 100 mM potassium phosphate buffer (pH 7.4) and acetonitrile 7:3 (v/v), LC/MS; for remaining at 10 min: 10 minutes at 37°C, read-out: Buf. remaining rate (%/10min); for remaining at 1 h: 60 minutes at 37°C, read-out: Buf. remaining rate (%/60min)
Summary of the method: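 Compound from DMSO solution incubated at 37°C in 100 mM potassium phosphate buffer/acetonitrile 7:3 (v/v) for 0, 10 and 60 min, then quenched with acetonitrile containing formic acid (final 0.1%). Unchanged compound in supernatant quantified by LC/MS; remaining rate (%) = amount at each time / amount at zero time × 100.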

Compound	remaining at 10 min [1]	remaining at 1 h [1]	remaining at 10 min [2]	remaining at 1 h [2]	remaining at 10 min [3]	remaining at 1 h [3]
COC(=O)c1cc(Cl)c(OC(=O)CCCc2ccc(NC(=O)c3ccc(C)nc3-c3ccc(C(F)(F)F)cc3)c(C(=O)N(C)C)c2)c(OC)c1 [Compound 1-36, 3-chloro-4-[4-(3-dimethylcarbamoyl-4-{[6-methyl-2-(4-trifluoromethylphenyl)pyridine-3-carbonyl]amino}phenyl)butyryloxy]-5-methoxybenzoic acid methyl ester]	3%	0%	0%	0%	100%	103%
COC(=O)c1ccc(OC(=O)CCCc2ccc(NC(=O)c3ccccc3-c3ccc(C(F)(F)F)cc3)c(C(=O)N(C)C)c2)c(C(F)(F)F)c1 [Compound 1-20, 4-(4-{3-dimethylcarbamoyl-4-[(4'-trifluoromethylbiphenyl-2-carbonyl)amino]phenyl}butyryloxy)-3-trifluoromethylbenzoic acid methyl ester]	0%	0%	0%	0%	102%	99%
Cc1cccc(COC(=O)c2ccc(OC(=O)CCCc3ccc(NC(=O)c4ccc(C)nc4-c4ccc(C(F)(F)F)cc4)c(C(=O)N(C)C)c3)cc2)n1 [Compound 1-100, 4-[4-(3-dimethylcarbamoyl-4-([6-methyl-2-(4-trifluoromethylphenyl)pyridine-3-carbonyl]amino}phenyl)butyryloxy]benzoic acid 6-methylpyridin-2-ylmethyl ester]	0%	0%	12%	0%	102%	102%
CN(C)C(=O)c1cc(CC(=O)Oc2ccc(F)cc2)ccc1NC(=O)c1ccccc1-c1ccc(C(F)(F)F)cc1 [Compound 1-4, {3-dimethylcarbamoyl-4-[(4'-trifluoromethylbiphenyl-2-carbonyl)amino]phenyl}acetic acid 4-fluorophenyl ester]	0%	0%	57%	5%	99%	95%
CN(C)C(=O)Cn1nnc(-c2ccc(OC(=O)CCCc3ccc(NC(=O)c4ccccc4-c4ccc(C(F)(F)F)cc4)c(C(=O)N(C)C)c3)cc2)n1 [Compound 1-105, 4-(3-dimethylcarbamoyl-4-{(4'-trifluoromethylbiphenyl-2-carbonyl)amino}phenyl)butyric acid 4-(2-dimethylcarbamoylmethyl-2H-tetrazol-5-yl)phenyl ester]	3%	0%	84%	43%	101%	101%
CC(C)OC(=O)c1ccc(OC(=O)CCCc2ccc(NC(=O)c3ccncc3-c3ccc(C(F)(F)F)cc3)c(C(=O)N(C)C)c2)cc1 [Compound 1-29, 4-[4-(3-dimethylcarbamoyl-4-{[3-(4-trifluoromethylphenyl)pyridine-4-carbonyl]amino}phenyl)butyryloxy]benzoic acid isopropyl ester]	1%	0%	41%	0%	98%	98%
CCc1cc(C(=O)OC)cc(F)c1OC(=O)CCCc1ccc(NC(=O)c2ccc(C)nc2-c2ccc(C(F)(F)F)cc2)c(C(=O)N(C)C)c1 [Compound 1-42, 4-[4-(3-dimethylcarbamoyl-4-{[6-methyl-2-(4-trifluoromethylphenyl)pyridine-3-carbonyl]amino}phenyl)butyryloxy]-3-ethyl-5-fluorobenzoic acid methyl ester]	5%	0%	52%	0%	103%	103%
CN(C)C(=O)c1cc(CCCC(=O)Oc2ccc(C(=O)OCc3ccc(C(=O)OC(C)(C)C)cc3)cc2)ccc1NC(=O)c1ccccc1-c1ccc(C(F)(F)F)cc1 [Compound 1-103, 4-[4-(3-dimethylcarbamoyl-4-{(4'-trifluoromethylbiphenyl-2-carbonyl)amino}phenyl)butyryloxy]benzoic acid 4-(t-butoxycarbonyl)benzyl ester]	48%	12%	99%	55%	105%	111%
CCOC(=O)c1cc(Cl)c(OC(=O)CCCc2ccc(NC(=O)c3ccc(C)nc3-c3ccc(C(F)(F)F)cc3)c(C(=O)N(C)C)c2)c(OC)c1 [Compound 1-48, 3-chloro-4-[4-(3-dimethylcarbamoyl-4-{[6-methyl-2-(4-trifluoromethylphenyl)pyridine-3-carbonyl]amino}phenyl)butyryloxy]-5-methoxybenzoic acid ethyl ester]	16%	6%	0%	0%	99%	97%
CN(C)C(=O)c1cc(CC(=O)Oc2ccccc2)ccc1NC(=O)c1ccccc1-c1ccc(C(F)(F)F)cc1 [Compound 1-3, {3-dimethylcarbamoyl-4-[(4'-trifluoromethylbiphenyl-2-carbonyl)amino]phenyl}acetic acid phenyl ester]	0%	0%	58%	5%	101%	98%
COC(=O)c1ccc(OC(=O)CN(C)Cc2ccc(NC(=O)c3ccccc3-c3ccc(C(F)(F)F)cc3)c(C(=O)N(C)C)c2)cc1 [Compound 2-1, 4-[2-({3-dimethylcarbamoyl-4-[(4'-trifluoromethylbiphenyl-2-carbonyl)amino]benzyl}methylamino)acetoxy]benzoic acid methyl ester]	0%	0%	47%	0%	95%	95%
CCc1cc(C(=O)OC)cc(C(=O)OC)c1OC(=O)CCCc1ccc(NC(=O)c2ccc(C)nc2-c2ccc(C(F)(F)F)cc2)c(C(=O)N(C)C)c1 [Compound 1-51, 4-[4-(3-dimethylcarbamoyl-4-([6-methyl-2-(4-trifluoromethylphenyl)pyridine-3-carbonyl]amino}phenyl)butyryloxy]-5-ethylisophthalic acid dimethyl ester]	8%	3%	23%	0%	98%	101%
COC(=O)c1cc(C)c(OC(=O)CCCc2ccc(NC(=O)c3ccc(C)nc3-c3ccc(C(F)(F)F)cc3)c(C(=O)N(C)C)c2)c(C(F)(F)F)c1 [Compound 1-45, 4-[4-(3-dimethylcarbamoyl-4-([6-methyl-2-(4-trifluoromethylphenyl)pyridine-3-carbonyl]amino}phenyl)butyryloxy]-3-methyl-5-trifluoromethylbenzoic acid methyl ester]	12%	2%	89%	48%	101%	102%
COC(=O)c1cc(C(=O)OC(C)C)cc(C)c1OC(=O)CCCc1ccc(NC(=O)c2ccc(C)nc2-c2ccc(C(F)(F)F)cc2)c(C(=O)N(C)C)c1 [Compound 1-111, 4-[4-(3-dimethylcarbamoyl-4-{[6-methyl-2-(4-trifluoromethylphenyl)pyridine-3-carbonyl]amino}phenyl)butyryloxy]-5-methylisophthalic acid 1-isopropyl ester 3-methyl ester]	41%	3%	30%	0%	99%	99%
COC(=O)c1ccc(OC(=O)CCCc2ccc(NC(=O)c3ccccc3-c3ccc(C(F)(F)F)cc3)c(C(=O)N(C)C)c2)cc1C [Compound 1-14, 4-(4-{3-dimethylcarbamoyl-4-[(4'-trifluoromethylbiphenyl-2-carbonyl)amino]phenyl}butyryloxy)-2-methyl benzoic acid methyl ester]	2%	0%	43%	0%	101%	104%
CN(C)C(=O)c1cc(CCCC(=O)Oc2ccc(C(=O)OCCOCc3ccccc3)cc2)ccc1NC(=O)c1ccccc1-c1ccc(C(F)(F)F)cc1 [Compound 1-89, 4-[4-(3-dimethylcarbamoyl-4-{(4'-trifluoromethylbiphenyl-2-carbonyl)amino}phenyl)butyryloxy]benzoic acid 2-benzyloxyethyl ester]	6%	3%	49%	0%	102%	104%

From patent publication EP1803452A1, “ESTER DERIVATIVE AND PHARMACEUTICAL USE THEREOF” (Japan Tobacco, Inc., priority 2004, dated 2006)
